Read-outs that look alike come from different tables or passages of the source.
Tests used:
[1] = tested on: enteropathogenic E. coli O-157; experiment: Test II on prevention of enteropathogenic E. coli O-157 infection; type: in vivo; conditions: mice, 8th day after administration of E. coli
Protocol: Sphingomyelin was tested for its effect of preventing enteropathogenic E. coli O-157 infection according to the method described in “Test Example 2” of Japanese Patent Laid-Open No. 2001-2704.
Test II on prevention of enteropathogenic E. coli O-157 infection
The survival rate of mice on the 8th day after the administration of E. coli was measured in the same way as in Test Example 10 except that the intake of sphingomyelin was changed to 0.1 to 10 mg/day.

[2] = tested on: enteropathogenic E. coli; conditions: SD rats

sphingomyelin was tested, and the Survival rate ([1]; intake 0.1 mg/day, control 35) was 35%, the Survival rate ([1]; intake 1.0 mg/day) was 65% and the Survival rate ([1]; intake 5.0 mg/day) was 70%. The Survival rate ([1]; intake 10.0 mg/day) was 70%, the Incidence of diarrhea ([2]; intake 0.1 mg/day in feed, control 100) was 100% and the Incidence of diarrhea ([2]; intake 1.0 mg/day in feed) was 40%. For the same substance, the Incidence of diarrhea ([2]; intake 5.0 mg/day in feed) was 30% and the Incidence of diarrhea ([2]; intake 10.0 mg/day in feed) was 10%.

From patent US8486916B2, “Medicine, food and drink or feed containing sphingomyelin” (Megmilk Snow Brand Co., Ltd., priority 2005, dated 2013)
